Source: PubChem BioAssay (NCI)
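All cell lines were grown in 96-well plates and treated with compound for 48 hours. The concentration for full growth arrest is given as TGI.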

Test system: M19-MEL melanoma
Experiment: DTP human tumour cell line panel, 48 h

SMILES | TGI
O=S(O)CCCCSSCCCCSSCCCCS(=O)O | > 100 µM
N#Cc1cnsc1 | > 100 µM
CC(=O)SCCC1c2[nH]c3ccccc3c2CCN1O (stereo not drawn) | > 100 µM
CCOC(=O)NC(=O)c1cn(CCCOC(=O)NCCCCCCNC(=O)OCCCn2c(=O)c(C(=O)NC(=O)OCC)cn(C)c2=O)c(=O)n(C)c1=O | > 100 µM
O=C1C2=C(CC3C(C2)C3(Br)Br)C(=O)C2=C1CC1C(C2)C1(Br)Br (stereo not drawn) | > 100 µM
CC(C)=CC(=O)N1CCN(C(=O)C=C(C)C)CC1 | > 100 µM
CC(=O)c1ccc(NC(=O)/C(Cc2ccccn2)=N/NC(=O)C[N+](C)(C)C)cc1 | > 100 µM
CCc1cccc(C)c1NC(C)=O | > 100 µM
O=C(CC(=O)N1N=C(c2ccccc2)C(N=Nc2ccc(Cl)cc2)C1=O)Nc1ccccc1Cl (stereo not drawn) | > 100 µM

Test system: SNB-78 CNS
Experiment: DTP human tumour cell line panel, 48 h

SMILES | TGI
CCCCCCCCCCCCCCCCOP(=O)(O)Oc1ccc(/C=C\c2ccc(OP(=O)(O)OCCCCCCCCCCCCCCCC)cc2)cc1 | 91.9 µM
O=c1[nH]c(=O)n(C2CC(O)C(CS)O2)cc1F (stereo not drawn) | > 100 µM
CCN(CC)C(=O)C/C(C)=N/NC(=O)c1ccncc1 | > 100 µM
COC(=O)C(=O)C(C(=O)C(=O)Nc1ccc(C)cc1C)c1nc2ccccc2[nH]c1=O (stereo not drawn) | > 100 µM
Cc1ccc(NC(=O)C2C(=O)N(c3ccc(C)c(C)c3)C(=O)/C2=N/O)cc1C (stereo not drawn) | > 100 µM
Nc1c(-c2ccc(Br)cc2)[n+]([O-])c2ccccc2[n+]1[O-] | > 100 µM
C#CC[C@]12CC(=O)CC[C@H]1CC(=O)C2 | > 100 µM
CNC=O.[O]=[Ge].[O]=[Ge].[O]=[Ge].[O]=[Ge][OH].[O]=[Ge][OH] | > 100 µM
Cc1cc(NS(=O)(=O)c2ccc(NC(=O)c3cccc4c(=O)c5ccccc5[nH]c34)cc2)no1 | > 100 µM
O=C(/C=C/c1ccccc1Cl)c1ccccc1Cl | 69.2 µM
COC(=O)C1=C(c2ccc3c(c2)OCO3)O[C@H](c2ccc3c(c2)OCO3)[C@H]1COC(C)=O | > 100 µM
CCC1(O)C(=O)OCc2c1cc1n(c2=O)Cc2cc3c(N)cccc3nc2-1 (stereo not drawn) | > 51.7 µM
CCOC(=O)[C@H]1Nc2ccc(C)cc2C2c3ccccc3CC21 (stereo partly drawn) | > 100 µM
CSc1nc(NC2OC(COC(C)=O)C(OC(C)=O)C(OC(C)=O)C2OC(C)=O)c2c(OC(C)=O)c(C)c(=O)oc2n1 (stereo not drawn) | > 100 µM
O=C(NC1CCCCCC1)C1C(=O)N(C2CCCCCC2)C(=O)/C1=N\O (stereo not drawn) | > 100 µM
CC#CC(=O)Nc1ccccc1CC(c1c[nH]c2ccccc12)c1c[nH]c2ccccc12 | 46.1 µM
NCCCNCCSSCCCCS(=O)O | > 100 µM
Cc1cccc(C(C)(C)C)c1NC(=O)CCc1n[nH]c(=S)o1 | > 100 µM
CN(C)C(=S)SN(C)C(=O)Nc1ccccc1 | > 100 µM
Cc1ccc(C(=O)/C=C/c2ccccc2O)c(C)c1 | > 100 µM
O=S(O)CCCCSSCCCCSSCCCCS(=O)O | 70.5 µM
N#Cc1cnsc1 | > 100 µM
O=C1C2=C(CC3C(C2)C3(Br)Br)C(=O)C2=C1CC1C(C2)C1(Br)Br (stereo not drawn) | > 100 µM
CC(C)=CC(=O)N1CCN(C(=O)C=C(C)C)CC1 | > 100 µM
CC(=O)c1ccc(NC(=O)/C(Cc2ccccn2)=N/NC(=O)C[N+](C)(C)C)cc1 | > 100 µM
CCc1cccc(C)c1NC(C)=O | > 100 µM
O=C(CC(=O)N1N=C(c2ccccc2)C(N=Nc2ccc(Cl)cc2)C1=O)Nc1ccccc1Cl (stereo not drawn) | > 100 µM

Test system: HOP-18 NSCLC
Experiment: DTP human tumour cell line panel, 48 h

SMILES | TGI
CCCCCCCCCCCCCCCCOP(=O)(O)Oc1ccc(/C=C\c2ccc(OP(=O)(O)OCCCCCCCCCCCCCCCC)cc2)cc1 | > 100 µM
O=c1[nH]c(=O)n(C2CC(O)C(CS)O2)cc1F (stereo not drawn) | > 100 µM
COC(=O)C(=O)C(C(=O)C(=O)Nc1ccc(C)cc1C)c1nc2ccccc2[nH]c1=O (stereo not drawn) | > 100 µM
Cc1ccc(NC(=O)C2C(=O)N(c3ccc(C)c(C)c3)C(=O)/C2=N/O)cc1C (stereo not drawn) | > 100 µM
Nc1c(-c2ccc(Br)cc2)[n+]([O-])c2ccccc2[n+]1[O-] | > 100 µM
C#CC[C@]12CC(=O)CC[C@H]1CC(=O)C2 | > 100 µM
CNC=O.[O]=[Ge].[O]=[Ge].[O]=[Ge].[O]=[Ge][OH].[O]=[Ge][OH] | > 100 µM
Cc1cc(NS(=O)(=O)c2ccc(NC(=O)c3cccc4c(=O)c5ccccc5[nH]c34)cc2)no1 | 28.2 µM
O=C(/C=C/c1ccccc1Cl)c1ccccc1Cl | 89.2 µM
COC(=O)C1=C(c2ccc3c(c2)OCO3)O[C@H](c2ccc3c(c2)OCO3)[C@H]1COC(C)=O | > 100 µM
CCC1(O)C(=O)OCc2c1cc1n(c2=O)Cc2cc3c(N)cccc3nc2-1 (stereo not drawn) | 0.903 µM
CCOC(=O)[C@H]1Nc2ccc(C)cc2C2c3ccccc3CC21 (stereo partly drawn) | > 100 µM
CSc1nc(NC2OC(COC(C)=O)C(OC(C)=O)C(OC(C)=O)C2OC(C)=O)c2c(OC(C)=O)c(C)c(=O)oc2n1 (stereo not drawn) | > 100 µM
O=C(NC1CCCCCC1)C1C(=O)N(C2CCCCCC2)C(=O)/C1=N\O (stereo not drawn) | > 100 µM
COc1ccc(C(=O)O)c(Cc2cccc3ccccc23)c1 | > 100 µM
NCCCNCCSSCCCCS(=O)O | > 100 µM
Cc1cc(C2CCCCC2)n(O)c(=O)c1 | > 100 µM
COC(=O)C(=O)C(C(=O)C=C(C)C)C(=O)C(=O)Nc1ccc(Cl)cc1C (stereo not drawn) | > 100 µM
Cc1cccc(C(C)(C)C)c1NC(=O)CCc1n[nH]c(=S)o1 | > 100 µM
O=S(O)CCCCSSCCCCSSCCCCS(=O)O | > 100 µM
N#Cc1cnsc1 | > 100 µM
CC(=O)SCCC1c2[nH]c3ccccc3c2CCN1O (stereo not drawn) | > 100 µM
CCOC(=O)NC(=O)c1cn(CCCOC(=O)NCCCCCCNC(=O)OCCCn2c(=O)c(C(=O)NC(=O)OCC)cn(C)c2=O)c(=O)n(C)c1=O | > 100 µM
O=C1C2=C(CC3C(C2)C3(Br)Br)C(=O)C2=C1CC1C(C2)C1(Br)Br (stereo not drawn) | > 100 µM
CC(C)=CC(=O)N1CCN(C(=O)C=C(C)C)CC1 | > 100 µM
CC(=O)c1ccc(NC(=O)/C(Cc2ccccn2)=N/NC(=O)C[N+](C)(C)C)cc1 | > 100 µM
O=C(CC(=O)N1N=C(c2ccccc2)C(N=Nc2ccc(Cl)cc2)C1=O)Nc1ccccc1Cl (stereo not drawn) | 67.8 µM
